Measured values from patent US10253002B2, “Compounds and methods of treating infections” (Neoculi Pty Ltd., priority 2013, dated 2019).
≈ marks a conversion by molar mass, not a printed value. Where “and” joins values, the source holds several entries; their conditions need not be identical. Identical values can stand only once. Like-named read-outs stand apart in the source and are kept apart here.

Legend:
Experiment in all cases: Broth microdilution MIC, Example 7 (NCL812 and analogues)
Escherichia coli = format: cell-based; conditions: E. coli, 24 hours; for MIC: Escherichia coli, read-out: MIC (μg/ml) at 24 hours E. coli
MRSA = format: cell-based, Staphylococcus aureus; conditions: for activity against MRSA among analogues: MIC testing, two MRSA strains; for MIC (μg/ml) at 24 hours, MRSA 1: MRSA 1, 24 hours; for MIC (μg/ml) at 24 hours, MRSA 2: MRSA 2, 24 hours; for MIC: Staphylococcus aureus; for MIC / MRSA: MRSA
How it was run: (§1)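 Turbidity read visually and then at 600 nm defined the MIC (μg/ml), comparing drug-containing wells with a growth-control well lacking antimicrobial. Testing followed the CLSI broth microdilution method, in duplicate, using two strains per organism group.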

VRE = format: cell-based, Enterococcus spp.; conditions: for activity against VRE among analogues: MIC testing, two VRE strains; for MIC (μg/ml) at 24 hours, VRE 1: VRE 1, 24 hours; for MIC (μg/ml) at 24 hours, VRE 2: VRE 2, 24 hours; for MIC: Enterococcus, 24 h
How it was run: as §1

Pseudomonas aeruginosa = format: cell-based; conditions: for MIC: Pseudomonas aeruginosa, 24 h, read-out: MIC (μg/ml) at 24 hours P. aeruginosa, P. aeruginosa, 24 hours
[1] = 24 h, read-out: MIC (μg/ml) at 24 hours MRSA 1, MRSA 1, 24 hours
[2] = 24 h, read-out: MIC (μg/ml) at 24 hours MRSA 2, MRSA 2, 24 hours
[3] = VRE, read-out: MIC (μg/ml) at 24 hours VRE 1, VRE 1, 24 hours
[4] = VRE, read-out: MIC (μg/ml) at 24 hours VRE 2, VRE 2, 24 hours
[5] = bioassay ranking, read-out: MRSA

Structure (SMILES) | MIC (μg/ml) at 24 hours, E. coli (Escherichia coli) [µg/mL] | activity against MRSA among analogues (MRSA) | MIC (μg/ml) at 24 hours, MRSA 1 (MRSA) | MIC (μg/ml) at 24 hours, MRSA 2 (MRSA) | activity against VRE among analogues (VRE) | MIC (μg/ml) at 24 hours, VRE 1 (VRE) [µg/mL] | MIC (μg/ml) at 24 hours, VRE 2 (VRE) | MIC (μg/ml) at 24 hours, P. aeruginosa (Pseudomonas aeruginosa) [µg/mL] | MIC (Escherichia coli) [µg/mL] | MIC (MRSA; [1]) [µg/mL] | MIC (MRSA; [2]) [µg/mL] | MIC (VRE; [3]) [µg/mL] | MIC (VRE; [4]) [µg/mL] | MIC (Pseudomonas aeruginosa) [µg/mL] | MIC (MRSA; [5]) [µg/mL] | MRSA (MRSA; bioassay ranking) [µg/mL] | VRE (VRE; bioassay ranking, VRE) [µg/mL]
CN(C)c1ccc(C=NNC(=N)NN=Cc2ccc(N(C)C)cc2O)c(O)c1 [NCL171] | >128 | greatest activity | 128 µg/mL (≈ 334 µM) | 64 µg/mL (≈ 167 µM) | greatest activity | 32 (≈ 83.5 µM) | >128 µg/mL | >128 |  |  |  |  |  |  |  |  | 
Nc1nc(NNC(=O)c2ccccc2)cc(NNC(=O)c2ccccc2)n1 [NCL194] | >128 |  | >128 µg/mL | >128 µg/mL |  | >128 | >128 µg/mL | >128 |  |  |  |  |  |  |  |  | 
Nc1nc(N/N=C/c2ccc(O)cc2)cc(N/N=C/c2ccc(O)cc2)n1 [NCL196, 4,4′-((1E,1′E)-((2-aminopyrimidine-4,6-diyl)bis(hydrazin-2-yl-1ylidene))bis(methanylylidene))diphenol] |  |  |  | 32 µg/mL (≈ 88.1 µM) |  | 64 (≈ 176 µM) |  | 128 (≈ 352 µM) | 64 (≈ 176 µM) | 32 (≈ 88.1 µM) | 64 (≈ 176 µM) | 32 (≈ 88.1 µM) | 64 (≈ 176 µM) | 64 (≈ 176 µM) |  |  | 
CC(C)(C)c1ccc(/C=N/Nc2cc(N/N=C/c3ccc(C(C)(C)C)cc3)nc(N)n2)cc1.Cl.Cl [NCL198] | >128 |  | >128 µg/mL | >128 µg/mL |  | >128 | >128 µg/mL | >128 |  |  |  |  |  |  |  |  | 
Nc1nc(N/N=C/c2ccccc2)cc(N/N=C/c2ccccc2)n1 [NCL199] |  | greatest activity | 4 µg/mL (≈ 12.1 µM) |  |  |  |  |  | > 128 | 2 (≈ 6.04 µM) | 4 (≈ 12.1 µM) | > 128 | > 128 | > 128 | 3.5 (≈ 10.6 µM) |  | 
CC(C)(C)c1ccc(/C=N/Nc2cc(N/N=C/c3ccc(C(C)(C)C)cc3)nc(N)n2)cc1 [NCL200] | >128 |  | >128 µg/mL | >128 µg/mL |  | >128 | >128 µg/mL | >128 |  |  |  |  |  |  |  |  | 
CN(C)c1ccc(/C=N/Nc2cc(N/N=C/c3ccc(N(C)C)cc3)nc(N)n2)cc1 [NCL201] | >128 | greatest activity | 32 µg/mL and 64 µg/mL | 16 µg/mL and 32 µg/mL |  | >128 | >128 µg/mL | >128 |  |  |  |  |  |  |  |  | 
C/C(=N\Nc1cc(N/N=C(\C)c2ccc(Cl)cc2)nc(N)n1)c1ccc(Cl)cc1 [NCL204] |  | greatest activity | 8 µg/mL (≈ 18.7 µM) | 8 µg/mL (≈ 18.7 µM) | greatest activity |  |  |  | > 128 | 4 (≈ 9.34 µM) | 4 (≈ 9.34 µM) | 64 (≈ 149 µM) | > 128 | > 128 | 6 (≈ 14 µM) |  | 
Nc1nc(N/N=C/c2ccccc2Cl)cc(N/N=C/c2ccccc2Cl)n1 [NCL205] | >128 | greatest activity | 4 µg/mL and 8 µg/mL | 4 µg/mL and 8 µg/mL | greatest activity | 64 (≈ 160 µM) | >128 µg/mL | >128 |  |  |  |  |  |  |  | 6 | 
Cc1ccc(/C=N/Nc2nc(N)nc(N/N=C/c3ccc(C)cc3)n2)cc1 [NCL206] | >128 |  | >128 µg/mL | >128 µg/mL |  | >128 | >128 µg/mL | >128 |  |  |  |  |  |  |  |  | 
Nc1nc(N/N=C/c2ccccc2O)nc(N/N=C/c2ccccc2O)n1 [NCL207] | >128 | greatest activity | 16 µg/mL and 32 µg/mL | 32 µg/mL (≈ 87.8 µM) |  | >128 | >128 µg/mL | >128 |  |  |  |  |  |  |  | 28 | 
C/C(=N\Nc1nc(N)nc(N/N=C(\C)c2ccc(Cl)cc2)n1)c1ccc(Cl)cc1 [NCL208] | >128 |  | >128 µg/mL | >128 µg/mL |  | >128 | >128 µg/mL | >128 |  |  |  |  |  |  |  |  | 
Nc1nc(N/N=C/c2cccc(O)c2)nc(N/N=C/c2cccc(O)c2)n1 [NCL209] | >128 |  | >128 µg/mL | >128 µg/mL |  | >128 | >128 µg/mL | >128 |  |  |  |  |  |  |  |  | 
Nc1nc(N/N=C/c2ccc(C(F)(F)F)cc2)nc(N/N=C/c2ccc(C(F)(F)F)cc2)n1 [NCL210] | >128 |  | >128 µg/mL | >128 µg/mL | greatest activity | 128 (≈ 273 µM) | 32 µg/mL and 64 µg/mL | >128 |  |  |  |  |  |  |  |  | 
Nc1nc(N/N=C/c2ccc(O)cc2)nc(N/N=C/c2ccc(O)cc2)n1 [NCL211] | >128 |  | >128 µg/mL | >128 µg/mL |  | >128 | >128 µg/mL | >128 |  |  |  |  |  |  |  |  | 
Nc1nc(N/N=C/c2ccc(Br)cc2)nc(N/N=C/c2ccc(Br)cc2)n1 [NCL212] | >128 |  | >128 µg/mL | >128 µg/mL and 128 µg/mL | greatest activity | 32 (≈ 65.3 µM) | 16 µg/mL (≈ 32.6 µM) | >128 |  |  |  |  |  |  |  |  | 24
Nc1nc(N/N=C/C2CCCCC2)nc(N/N=C/C2CCCCC2)n1 [NCL213] | >128 |  | >128 µg/mL | >128 µg/mL |  | >128 | >128 µg/mL | >128 |  |  |  |  |  |  |  |  | 
Nc1nc(N/N=C/c2ccccc2)nc(N/N=C/c2ccccc2)n1 [NCL214] | >128 |  | >128 µg/mL | >128 µg/mL |  | >128 | >128 µg/mL | >128 |  |  |  |  |  |  |  |  | 
